In PMC7822874, “Chemoprotective antimalarials identified through quantitative high-throughput screening of Plasmodium blood and liver stage parasites” (Scientific Reports, 2021):
Read-outs that look alike come from different tables or passages of the source.

How the values were obtained:
[1] = tested on: P. berghei-ANKA-GFP-LucCON liver stage parasites in HepG2-A16-CD81EGFP cells; experiment: P. berghei liver stage Pb-Luc assay, Method 1 (UCSD, 1536-well); format: cell-based, Plasmodium berghei; details: for Max Resp (signal direction of the dose response) / AC50 / Log AC50 (M): Method 1; for Max Resp (signal direction of the dose response): Decrease = decreasing P. berghei viability with dose, Increase = increasing signal, Inactive = no dose response; for activity at 1 µM / activity at 3 µM: 48 h, average of 2 wells on a 1536 well plate; for activity at 1 µM: 1 uM (compounds provided at 10 mM); for activity at 3 µM: 3 uM (compounds provided at 10 mM)
[2] = tested on: Plasmodium falciparum Dd2 asexual blood stage parasites; experiment: microbe, parasite or virus in culture; design: species or system Plasmodium falciparum Dd2 in human erythrocytes; single determination (one 11-point concentration-response curve); details: Plasmodium falciparum, DD2, Erythrocyte, 72 h; read-out: AC50
in vitro = details: human
[3] = Plasmodium berghei, Hill fit, 50% of maximum activity response, read-out: AC50
[4] = Plasmodium berghei, log10 of molar AC50 from Hill fit, read-out: Log AC50 (converted)
[5] = HepG2-A16-CD81EGFP cells, uninfected
[6] = Plasmodium berghei, column 11, read-out: Pb-Luc (P. berghei liver stage), % of control, lower concentration, first repeat
[7] = Plasmodium berghei, column 12, read-out: Pb-Luc (P. berghei liver stage), % of control, lower concentration, second repeat
[8] = Plasmodium berghei, column 8, read-out: Pb-Luc (P. berghei liver stage), % of control, higher concentration, first repeat
[9] = Plasmodium berghei, column 9, read-out: Pb-Luc (P. berghei liver stage), % of control, higher concentration, second repeat
[10] = Hill fit, 50% of maximum activity response, read-out: AC50
[11] = log10 of molar AC50 from Hill fit

Compound | Max Resp (signal direction of the dose response) [1] | AC50 [1, 3] [µM] | AC50 [1, 4] [µM] | AC50 [2] [µM] | viability at 48 h (in vitro; [5]) [%] | viability at 48 h, 1 µM (in vitro; [5]) [%] | activity at 1 µM [1, 6] [%] | activity at 1 µM [1, 7] [%] | activity at 3 µM [1, 8] [%] | activity at 3 µM [1, 9] [%] | viability at 48 h, 3 µM (in vitro; [5]) [%] | AC50 [1, 10] [µM] | Log AC50 (M) [1, 11] [M] | viability at 66 h (in vitro; [5]) [%] | viability at 48 h (in vitro) [%] | viability at 48 h, 1 µM (in vitro) [%]
Cc1ccc(/C=N/NC(=O)c2cc3ccccc3cc2O)o1 [MLS001219838-01] | Decrease | 1.41 | 1.41 | 5.31 | 97.9 | 97.9 | – | – | – | – | – | – | – | – | – | –
NC1=NC[C@@H](Cc2ccc(O)cc2)N1CCCCC1CCCCC1 [MLS000888822-01] | – | – | – | 4.73 | – | 116 | 90 | 82 | 35 | 46 | 94 | – | – | – | – | –
Fc1ccc(-c2csc3ncnc(Cl)c23)cc1 [MLS000590541-01] | – | – | – | 3.35 | – | 111 | 115 | 105 | 120 | 132 | 101 | – | – | – | – | –
OCCNc1nc(Nc2ccc(Br)cc2)nc2ccccc12 [MLS000625070-01] | Decrease | 1.41 | 1.41 | 2.66 | – | – | – | – | – | – | – | 2.24 | -5.650 | 97 | – | –
Cc1ccc(Oc2ccc(NC(=O)c3ccco3)cc2)cc1 [MLS000111237-01] | Decrease | 0.1 | 0.1 | 10.6 | – | – | – | – | – | – | – | 0.158 | -6.800 | 95.1 | – | –
CCOC(=O)c1c(C)oc2c1C(=O)c1ccccc1C2=O [MLS000684830-01] | – | – | – | 0.422 | – | 105 | 95 | 85 | 72 | 93 | 99 | – | – | – | – | –
COc1ccc(NC(=O)CN(C)C(=O)c2oc3c(ccc4ccccc43)c2C)cc1 [MLS002182882-01] | – | – | – | 0.531 | – | 110 | 160 | 170 | 88 | 114 | 104 | – | – | – | – | –
CCOc1ccc(NC(=O)c2cc3ccccc3cc2O)cc1 [MLS000736677-01] | Decrease | 0.501 | 0.501 | 5.31 | – | – | – | – | – | – | – | – | – | – | 100 | 100
CCn1cc(C(=O)N[C@@H](CCSC)C(=O)NC(C)(C)CO)c(=O)c2cc3c(cc21)OCO3 [MLS001201727-01] | Inactive | – | – | 2.99 | 103 | 103 | – | – | – | – | – | – | – | – | – | –
O=C(Nc1cccnc1)c1cc(-c2cccnc2)nc2ccc(Br)cc12 [MLS000582206-01] | – | – | – | 2.66 | – | 109 | 112 | 106 | 80 | 95 | 104 | – | – | – | – | –
Cc1ccc(C)c(NC(=O)CN(C)C(=O)c2ccc(-c3cccc(C(F)(F)F)c3)o2)c1 [MLS001161354-01] | – | – | – | 2.11 | – | 98 | 171 | 168 | 154 | 126 | 102 | – | – | – | – | –
COc1cc2nc(Nc3ccc(C)c(Cl)c3)nc(N)c2cc1OC [MLS001199666-01] | – | – | – | 2.11 | – | 109 | 99 | 121 | 97 | 111 | 100 | – | – | – | – | –
COc1cc(O)c(C(CCN2CCN(c3ccccc3)CC2)c2ccc3c(c2)OCO3)c(OC)c1 (stereo not shown) [MLS000879526-01] | – | – | – | 0.841 | – | 117 | 105 | 112 | 97 | 92 | 96 | – | – | – | – | –
Nc1cc[n+](CC(=O)c2ccc3c(c2)OCCO3)cc1 [MLS000391090-01] | Inactive | – | – | 13.3 | 97.8 | 97.8 | – | – | – | – | – | – | – | – | – | –
CC(C)COc1ccc(C(=O)N/C(=C\c2cccc([N+](=O)[O-])c2)C(=O)OC(C)C)cc1 [MLS000574251-01] | – | – | – | 0.531 | – | 111 | 90 | 84 | 65 | 69 | 102 | – | – | – | – | –
CCOC(=O)c1ccc(N=C(S)N2CCN(CCNC3=CC(=O)CC(C)(C)C3)CC2)cc1 [MLS000710946-01] | – | – | – | 5.96 | – | 96 | 118 | 96 | 134 | 116 | 101 | – | – | – | – | –
COc1ccc(-c2c(C)nn3c(N)c(C#N)cnc23)cc1OC [MLS000718813-01] | Decrease | 1.26 | 1.26 | 1.68 | – | – | – | – | – | – | – | 1.41 | -5.850 | 108 | – | –
COc1ccccc1CNCC(O)(c1ccc(Cl)cc1)c1ccc(Cl)cc1 [MLS000325719-01] | – | – | – | 1.5 | – | 95 | 101 | 103 | 108 | 98 | 101 | – | – | – | – | –
CC1=C(CC(=O)c2ccc(Cl)cc2)C(=O)c2ccccc2C1=O [MLS000543314-01] | – | – | – | 0.211 | – | 105 | 78 | 79 | 77 | 70 | 100 | – | – | – | – | –
CC(C)(C)N1C(=O)c2ccc(C(=O)Nc3ccc(-c4nc5ccccc5[nH]4)cc3)cc2C1=O [MLS000567491-01] | – | – | – | 6.68 | – | 94 | 114 | 117 | 141 | 128 | 108 | – | – | – | – | –
CCN1CCN(Cc2ccc(NC(=O)c3cc(NC(=O)c4cnn(-c5ccccc5)c4N)cc(OC)c3)cc2C(F)(F)F)CC1 [MLS000911569-01] | – | – | – | 2.11 | – | 98 | 116 | 92 | 116 | 103 | 106 | – | – | – | – | –
CCCc1ccc(OCc2nc(-c3ccc(NC(=O)c4cccs4)cc3)no2)cc1 [MLS000584893-01] | Decrease | 1.41 | 1.41 | 15 | 97.2 | 97.2 | – | – | – | – | – | – | – | – | – | –
Oc1ccccc1Nc1nc(NCc2ccco2)c2ccccc2n1 [MLS000693437-01] | Inactive | – | – | 2.99 | 95.6 | 95.6 | – | – | – | – | – | – | – | – | – | –
C=C(C)COc1ccc(-c2n[nH]cc2-c2ccc(OC)c(OC)c2)c(O)c1 [MLS000084580-01] | Decrease | 0.501 | 0.501 | 6.68 | – | – | – | – | – | – | – | – | – | 36 | – | –
